According to patent publication US6444651B1, “Antimicrobial agents for eucaryotic microorganisms and methods of growth suppression of eucaryotic microorganisms using these agents” (Asama Chemical Co., Ltd., priority 1997, dated 2002):

Test system: Fungi
Assay: Preservation tests for milky-lotion type hair tonics (Example 9)
Parameters: key: +: Fungi appeared
Conditions: day 14; 37° C.; DNA 0.03%, control 0.1% Ethyl p-hydroxy benzoate
Description: A milky-lotion type hair tonic was prepared using the components described below. It was manufactured under the open system since microbial infection from the air was expected.
The oil phase (A) and aqueous phase (B) were heated to 85° C., respectively. Then, (A) and (B) were mixed and agitated to emulsification at the same temperature. A hair tonic was prepared after the mixture was cooled down to normal temperature.
The hair tonic prepared was poured into a bottle with 0.03% of the DNA. The bottle was sealed and kept at 37° C. for preservation tests. 0.1% Ethyl p-hydroxy benzoate was added to the hair tonic as a control instead of the DNA.

CCOC(=O)c1ccc(O)cc1 [Control, Ethyl p-hydroxy benzoate] was tested, and the “appearance of fungi in hair tonic” value was “+”.
